In patent publication US7855290B2, “Pyridine derivatives and pyrimidine derivatives (3)” (Eisai R&D Management Co., Ltd., priority 2005, dated 2010):

Columns and labels:
[1] = target: T1, His6-HGFR (HGFR cytoplasmic domain) (Homo sapiens, UniProt P08581); test: Inhibitory activity against HGFR tyrosine kinase activity (HTRF); assay type: biochemical; conditions: biotin-poly(GT), ATP, 30° C. 10 min
T1 construct: made in house; host or cells: Sf9 insect cells (Spodoptera frugiperda), baculovirus, pFastBac-HT vector
T1 sequence (P08581 956-1390 limits assumed): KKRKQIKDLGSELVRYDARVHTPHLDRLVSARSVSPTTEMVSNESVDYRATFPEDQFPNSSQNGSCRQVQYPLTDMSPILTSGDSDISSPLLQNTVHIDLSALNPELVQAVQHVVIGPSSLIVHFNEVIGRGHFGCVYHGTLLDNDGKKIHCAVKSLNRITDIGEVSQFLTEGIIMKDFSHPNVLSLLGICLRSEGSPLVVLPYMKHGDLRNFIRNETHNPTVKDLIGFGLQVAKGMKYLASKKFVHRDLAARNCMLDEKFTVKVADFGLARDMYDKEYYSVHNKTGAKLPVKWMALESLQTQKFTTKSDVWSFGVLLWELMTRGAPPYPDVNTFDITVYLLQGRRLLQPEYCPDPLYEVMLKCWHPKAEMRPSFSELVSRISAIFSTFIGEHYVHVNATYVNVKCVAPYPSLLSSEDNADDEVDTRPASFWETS
How it was run: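 Sf9-expressed, Ni-NTA-purified N-terminal His6-tagged HGFR cytoplasmic domain (from Lys974), 30 ng, phosphorylates 250 ng biotin-poly(GT) in Hepes pH 7.4 with MgCl2, MnCl2 and Na3VO4. Reaction started with 4 μM ATP stock, run 10 min at 30° C, stopped with EDTA. Phosphotyrosine is detected by HTRF.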

[2] = tested on: Human gastric cancer cells (MKN-45); test: Inhibitory activity against the proliferation of human gastric cancer cells (MKN-45); assay type: cell-based; conditions: 72 h, MKN-45, 1% FBS RPMI1640, 3 days, Cell Counting Kit-8
How it was run: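 MKN-45 cells seeded overnight in RPMI1640 with 1% FBS, then exposed to compound for 3 days at 37° C, 5% CO2. Viability read with CCK-8 after about 1.5 hrs, absorbance at 450 nm (reference 660 nm).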

Compound	IC50 [1]	IC50 [2]
CN(C)CCN1CCC(N(C)C(=O)Nc2cc(Oc3ccc(NC(=O)C4(C(=O)Nc5ccc(F)cc5)CC4)cc3)ccn2)CC1 [Example 39, N-(4-{[2-({[{1-[2-(Dimethylamino)ethyl]piperidin-4-yl}(methyl)amino]carbonyl}amino)pyridin-4-yl]oxy}phenyl)-N′-(4-fluorophenyl)cyclopropane-1,1-dicarboxamide]	100 nM	38 nM
CCN(CC)CCCNC(=O)Nc1cc(Oc2ccc(NC(=O)C3(C(=O)Nc4ccc(F)cc4)CC3)c(Cl)c2)ccn1 [Example 43, N-[2-Chloro-4-({2-[({[3-(diethylamino)propyl]amino}carbonyl)amino]pyridin-4-yl}oxy)phenyl]-N′-(4-fluorophenyl)cyclopropane-1,1-dicarboxamide]	180 nM	280 nM
CCN(CC)CCCN(C)C(=O)Nc1cc(Oc2ccc(NC(=O)C3(C(=O)Nc4ccc(F)cc4)CC3)cc2F)ccn1 [Example 44, N-(4-{[2-({[[3-(Diethylamino)propyl](methyl)amino]carbonyl}amino)pyridin-4-yl]oxy}-3-fluorophenyl)-N′-(4-fluorophenyl)cyclopropane-1,1-dicarboxamide]	91 nM	54 nM
CCN(CC)CCCNC(=O)Nc1cc(Oc2ccc(NC(=O)C3(C(=O)Nc4ccc(F)cc4)CC3)cc2C)ccn1 [Example 45, N-[4-({2-[({[3-(Diethylamino)propyl]amino}carbonyl)amino]pyridin-4-yl}oxy)-3-methylphenyl]-N′-(4-fluorophenyl)cyclopropane-1,1-dicarboxamide]	240 nM	500 nM
CN(C)[C@@H]1CCN(C(=O)Nc2cc(Oc3ccc(NC(=O)C4(C(=O)Nc5ccc(F)cc5)CC4)c(F)c3)ccn2)C1 [Example 47, N-(4-{[2-({[(3R)-3-(Dimethylamino)pyrrolidin-1-yl]carbonyl}amino)pyridin-4-yl]oxy}-2-fluorophenyl)-N′-(4-fluorophenyl)cyclopropane-1,1-dicarboxamide]	83 nM	27 nM
CN(C)C1CN(C2CCN(C(=O)Nc3cc(Oc4ccc(NC(=O)C5(C(=O)Nc6ccccc6)CC5)c(F)c4)ccn3)CC2)C1 [Example 55]	120 nM	43 nM
CN1CCC(N(C)C(=O)Nc2cc(Oc3ccc(NC(=O)C4(C(=O)Nc5ccc(F)cc5F)CC4)c(F)c3)ccn2)CC1 [Example 56, N-(2,4-Difluorophenyl)-N′-(2-fluoro-4-{[2-({[methyl(1-methylpiperidin-4-yl)amino]carbonyl}amino)pyridin-4-yl]oxy}phenyl)cyclopropane-1,1-dicarboxamide]	110 nM	53 nM
CN1CCC(N(C)C(=O)Nc2cc(Oc3ccc(NC(=O)C4(C(=O)Nc5ccccc5F)CC4)c(F)c3)ccn2)CC1 [Example 57, N-(2-Fluoro-4-{[2-({[methyl(1-methylpiperidin-4-yl)amino]carbonyl}amino)pyridin-4-yl]oxy}phenyl)-N′-(2-fluorophenyl)cyclopropane-1,1-dicarboxamide]	180 nM	150 nM
CN(C)[C@H]1CCN(C(=O)Nc2cc(Oc3ccc(NC(=O)C4(C(=O)Nc5ccccc5)CC4)c(F)c3)ccn2)C1 [Example 58, N-(4-{[2-({[(3S)-3-(Dimethylamino)pyrrolidin-1-yl]carbonyl}amino)pyridin-4-yl]oxy}-2-fluorophenyl)-N′-phenylcyclopropane-1,1-dicarboxamide]	85 nM	25 nM
CN(C)[C@@H]1CCN(C(=O)Nc2cc(Oc3ccc(NC(=O)C4(C(=O)Nc5ccccc5)CC4)c(F)c3)ccn2)C1 [Example 59, N-(4-{[2-({[(3R)-3-(Dimethylamino)pyrrolidin-1-yl]carbonyl}amino)pyridin-4-yl]oxy}-2-fluorophenyl)-N′-phenylcyclopropane-1,1-dicarboxamide]	75 nM	44 nM
CCN1CCC(N(C)C(=O)Nc2cc(Oc3ccc(NC(=O)C4(C(=O)Nc5ccccc5)CC4)c(F)c3)ccn2)CC1 [Example 60, N-(4-{[2-({[(1-Ethylpiperidin-4-yl)(methyl)amino]carbonyl}amino)pyridin-4-yl]oxy}-2-fluorophenyl)-N′-phenylcyclopropane-1′-dicarboxamide]	82 nM	15 nM

The next compounds have a lower IC50 [1] than those just listed; values first:

IC50 [1]	IC50 [2]	Compound
52 nM	52 nM	CN(C)C1CN(C2CCN(C(=O)Nc3cc(Oc4ccc(NC(=O)C5(C(=O)Nc6ccc(F)cc6)CC5)cc4)ccn3)CC2)C1 [Example 38, N-[4-({2-[({4-[3-(Dimethylamino)azetidin-1-yl]piperidin-1-yl}carbonyl)amino]pyridin-4-yl}oxy)phenyl]-N′-(4-fluorophenyl)cyclopropane-1,1-dicarboxamide]
55 nM	17 nM	O=C(Nc1cc(Oc2ccc(NC(=O)C3(C(=O)Nc4ccc(F)cc4)CC3)c(F)c2)ccn1)N1CCC(CN2CCCC2)CC1 [Example 40, N-(4-Fluorophenyl)-N′-(2-fluoro-4-{[2-({[4-(pyrrolidin-1-ylmethyl)piperidin-1-yl]carbonyl}amino)pyridin-4-yl]oxy}phenyl)cyclopropane-1,1-dicarboxamide]
44 nM	42 nM	CN(C)[C@H]1CCN(C(=O)Nc2cc(Oc3ccc(NC(=O)C4(C(=O)Nc5ccc(F)cc5)CC4)cc3)ccn2)C1 [Example 41, N-(4-{[2-({[(3S)-3-(Dimethylamino)pyrrolidin-1-yl]carbonyl}amino)pyridin-4-yl]oxy}phenyl)-N′-(4-fluorophenyl)cyclopropane-1,1-dicarboxamide]
57 nM	60 nM	CN(C)[C@@H]1CCN(C(=O)Nc2cc(Oc3ccc(NC(=O)C4(C(=O)Nc5ccc(F)cc5)CC4)cc3)ccn2)C1 [Example 42, N-(4-{[2-({[(3R)-3-(Dimethylamino)pyrrolidin-1-yl]carbonyl}amino)pyridin-4-yl]oxy}phenyl)-N′-(4-fluorophenyl)cyclopropane-1,1-dicarboxamide]
64 nM	14 nM	CN(C)[C@H]1CCN(C(=O)Nc2cc(Oc3ccc(NC(=O)C4(C(=O)Nc5ccc(F)cc5)CC4)c(F)c3)ccn2)C1 [Example 46, N-(4-{[2-({[(3S)-3-(Dimethylamino)pyrrolidin-1-yl]carbonyl}amino)pyridin-4-yl]oxy}-2-fluorophenyl)-N′-(4-fluorophenyl)cyclopropane-1,1-dicarboxamide]
63 nM	17 nM	CN1CCC(N(C)C(=O)Nc2cc(Oc3ccc(NC(=O)C4(C(=O)Nc5ccccc5)CC4)c(F)c3)ccn2)CC1 [Example 48, N-(2-Fluoro-4-{[2-({[methyl(1-methylpiperidin-4-yl)amino]carbonyl}amino)pyridin-4-yl]oxy}phenyl)-N′-phenylcyclopropane-1,1-dicarboxamide]
64 nM	20 nM	CN1CCN(C2CCN(C(=O)Nc3cc(Oc4ccc(NC(=O)C5(C(=O)Nc6ccccc6)CC5)c(F)c4)ccn3)CC2)CC1 [Example 54, N-(2-Fluoro-4-{[2-({[4-(4-methylpiperazin-1-yl)piperidin-1-yl]carbonyl}amino)pyridin-4-yl]oxy}phenyl)-N′-phenylcyclopropane-1,1-dicarboxamide]
15 nM	15 nM	O=C(Nc1cc(Oc2ccc(NC(=O)C3(C(=O)Nc4ccc(F)cc4)CC3)c(F)c2)ccn1)N1CCC1 [Example 61, N-[4-({2-[(Azetidin-1-ylcarbonyl)amino]pyridin-4-yl]oxy}-2-fluorophenyl]-N′-(4-fluorophenyl)cyclopropane-1,1-dicarboxamide]
20 nM	25 nM	O=C(Nc1cc(Oc2ccc(NC(=O)C3(C(=O)Nc4ccc(F)cc4)CC3)c(F)c2)ccn1)N1CCCC1 [Example 62, N-(4-Fluorophenyl)-N′-[2-fluoro-4-({2-[(pyrrolidin-1-ylcarbonyl)amino]pyridin-4-yl}oxy)phenyl]cyclopropane-1,1-dicarboxamide]
14 nM	54 nM	O=C(Nc1cc(Oc2ccc(NC(=O)C3(C(=O)Nc4ccc(F)cc4)CC3)c(F)c2)ccn1)N1CCOCC1 [Example 63, N-[2-Fluoro-4-({2-[(morpholin-4-ylcarbonyl)amino]pyridin-4-yl}oxy)phenyl]-N′-(4-fluorophenyl)cyclopropane-1,1-dicarboxamide]
58 nM	57 nM	CN1CCN(C(=O)Nc2cc(Oc3ccc(NC(=O)C4(C(=O)Nc5ccc(F)cc5)CC4)c(F)c3)ccn2)CC1 [Example 64, N-{2-Fluoro-4-[(2-{[(1-methylpiperazin-4-yl)carbonyl]amino}pyridin-4-yl)oxy]phenyl}-N′-(4-fluorophenyl)cyclopropane-1,1-dicarboxamide]
15 nM	23 nM	O=C(Nc1cc(Oc2ccc(NC(=O)C3(C(=O)Nc4ccc(F)cc4)CC3)cc2F)ccn1)N1CCC1 [Example 65, N-[4-({2-[(Azetidin-1-ylcarbonyl)amino]pyridin-4-yl}oxy)-3-fluorophenyl]-N′-(4-fluorophenyl)cyclopropane-1,1-dicarboxamide]
20 nM	31 nM	O=C(Nc1cc(Oc2ccc(NC(=O)C3(C(=O)Nc4ccc(F)cc4)CC3)cc2F)ccn1)N1CCCC1 [Example 66, N-(4-Fluorophenyl)-N′-[3-fluoro-4-({2-[(pyrrolidin-1-ylcarbonyl)amino]pyridin-4-yl}oxy)phenyl]cyclopropane-1,1′-dicarboxamide]
17 nM	52 nM	O=C(Nc1cc(Oc2ccc(NC(=O)C3(C(=O)Nc4ccc(F)cc4)CC3)cc2F)ccn1)N1CCOCC1 [Example 67, N-[3-Fluoro-4-({2-[(morpholin-4-ylcarbonyl)amino]pyridin-4-yl}oxy)phenyl]-N′-(4-fluorophenyl)-cyclopropane-1,1-dicarboxamide]
